The experiment has as its target T1, P-tau S396 in control-1 8330–8-RC1 neurons (Homo sapiens, UniProt P10636).
T1 construct: modeling pathogenic tau species without the need for overexpression of heterologous genes; endogenous in cells; host or cells: 8330-8-RC1, MGH2069-RC1, CTR2-L17-RC2 human iPSC-derived neurons
In words: Western blot of P-tau S396 in control line 1 neurons. The experiment is classed as cell-based. As to conditions: control line 1, western blot, 1 μM, 24 hr. An excerpt:
Cells from individuals carrying the tau risk variant A152T (c.1407G > A; NCBI RefSeq NM_001123066, rs143624519), the autosomal dominant mutation P301L (c.C1907T; NCBI NM_001123066, rs63751273), or age-matched non-mutant WT tau were employed in this study (Figure 2—source data 1). Dermal fibroblasts from the tau-P301L carrier and the healthy individual were generated from a skin biopsy from subjects within the MGH Frontotemporal Disorders Unit as part of the MGH Neurodegeneration Repository. Approval for human subjects’ work was obtained under a Partners/MGH-approved IRB Protocol (#2010P001611/MGH). […]
Neurons differentiated in six-well plates for 6 weeks were washed and collected in PBS, lysed in RIPA buffer (Boston Bio-Products, Boston, MA) supplemented with 2% SDS (Sigma), protease inhibitors cocktail (Roche Complete Mini tablets, Mannheim, Germany), and phosphatase inhibitors cocktail (Sigma), followed by water sonication (Bransonic Ultrasonic Baths, Thomas Scientific, Danbury, CT) and 20,000 g centrifugation for 20 min. Supernatants were transferred to new tubes and total protein concentration was quantified with the Pierce BCA Protein Assay Kit (ThermoFisher Scientific, Carlsbad, CA). […]

The structures appear in SMILES notation.

T1 sequence (P10636 1-441 isoform P10636-8): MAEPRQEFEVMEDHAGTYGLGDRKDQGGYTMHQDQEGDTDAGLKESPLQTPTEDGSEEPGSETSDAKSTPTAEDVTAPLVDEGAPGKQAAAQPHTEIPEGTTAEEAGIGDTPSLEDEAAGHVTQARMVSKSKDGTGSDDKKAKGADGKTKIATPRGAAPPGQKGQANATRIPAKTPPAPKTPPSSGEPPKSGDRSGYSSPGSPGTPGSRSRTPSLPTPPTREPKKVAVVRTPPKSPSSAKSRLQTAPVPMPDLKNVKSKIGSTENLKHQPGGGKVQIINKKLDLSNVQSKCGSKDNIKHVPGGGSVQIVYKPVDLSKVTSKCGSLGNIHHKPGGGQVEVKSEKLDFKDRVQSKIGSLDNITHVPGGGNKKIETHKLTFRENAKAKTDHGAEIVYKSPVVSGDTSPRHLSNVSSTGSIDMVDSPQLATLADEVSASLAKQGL

Turning to `O=C(CCc1ccc2c(c1)[nH]c1ccncc12)NCCOCCOCCNc1cccc2c1C(=O)N(C1CCC(=O)NC1=O)C2=O` (stereo not shown) [QC-01–175], the “degradation of P-tau” value is given as “unable to induce significant degradation”.

The values are drawn from article PMC6450673, “Targeted degradation of aberrant tau in frontotemporal dementia patient-derived neuronal cell models” (eLife, 2019).
